Reference: patent US20100105652A1, “PURINES AS CYSTEINE PROTEASE INHIBITORS” (Glaxo Group Limited, priority 2007, published 2010)
Counter-ions that a name gives are not always drawn.

Assays:
[1] = molecular target: T1, Falcipain-2 (Plasmodium falciparum, UniProt Q8I6U4); test: falcipain-2 enzymatic assay (fluorogenic substrate H-D-VLR-AFC, endpoint); format: biochemical; conditions: parasitic recombinant enzyme, pH 5.5, quenched after 60 minutes
T1 sequence (Q8I6U4 244-484): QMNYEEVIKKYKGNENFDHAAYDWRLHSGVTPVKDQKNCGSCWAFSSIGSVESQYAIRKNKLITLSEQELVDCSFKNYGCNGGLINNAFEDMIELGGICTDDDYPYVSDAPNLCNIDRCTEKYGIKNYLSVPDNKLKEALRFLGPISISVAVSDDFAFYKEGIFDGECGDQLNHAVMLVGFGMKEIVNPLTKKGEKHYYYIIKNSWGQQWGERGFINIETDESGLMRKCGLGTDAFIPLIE
Procedure: (§1) 1) Determination of Falcipain-2, Falcipain-3, Vivapain-2, and Cathepsin S Proteolytic Catalytic Activity
(§2) Assays for Falcipain-2, Falcipain-3, and Vivapain-2 are carried out with parasitic recombinant enzymes. Cathepsins S is carried out with human recombinant enzymes. Standard assay conditions for the determination of kinetic constants used a fluorogenic peptide substrate, typically H-D-VLR-AFC (Falcipain-2, Falcipain-3, Vivapain-2) or KQKLR-AMC (Cathepsin S) and are determined in 100 mM sodium acetate, pH 5.5, containing 10 mM DTT and 0.5 mM CHAPS (Falcipain-2, Falcipain-3, Vivapain-2), or 50 mM MES, pH 6.5, containing 0.5 mM CHAPS, 10 mM L-CYS, 5 mM EDTA (Cathepsin S). Stock substrate solutions are prepared at 20 mM in DMSO. The activity assays contained 30 uM substrate (Falcipain-2, Falcipain-3, Vivapain-2), and 30 uM substrate (Cathepsin S). All assays contained 1% DMSO. […] All assays are conducted at ambient temperature as end point assays being quenched after 60 minutes with the exception of Cathepsin S at 90 minutes, with 16.6 uM E-64 in 1% DMSO. Product formation (AFC or AMC) is determined from fluorescence (excitation at 405 nm; emission at 530 nm, AFC, or excitation at 360 nm; emission at 460 nm, AMC) monitored with a LJL Aquest (Molecular Devices) fluorescent plate reader. In the case of kinetic reads (used in mechanism of action studies), the reaction is not quenched but is read in the plate reader every 3 minutes for approximately 90 minutes. In addition, the mechanism of action studies for Falcipain-2 utilize Z-LR-AMC as the substrate. Product formation is determined from the fluorescence of AMC, measured with a LJL Acquest (Molecular Devices) fluorescent plate reader (excitation at 360 nm; emission at 460 nm).
(§3) Potential inhibitors are evaluated using the quenched read (endpoint) method. Assays are carried out in the presence of variable concentrations of test compound. Reactions are initiated by addition of enzyme and substrate to wells containing inhibitor stamped in 100% DMSO. For endpoint assays, the reaction is quenched with the addition of E64. Dose response data is fit to an IC50 curve with preset fitting tools according to equation 1:
(§4) y=a+(b−a)/(1+(10^X/10^C)^d) (1)
(§5) where y is the response at a particular inhibitor concentration x, a is the minimum response value, b is the maximum response value, c is the IC50, and d is the slope of the IC50 curve. Assuming the compound is a competitive inhibitor, the apparent KI can be calculated from IC50, as shown in equation 2: […]

[2] = molecular target: T2, Falcipain-3 (Plasmodium falciparum, UniProt Q8IIL0); test: falcipain-3 enzymatic assay (fluorogenic substrate H-D-VLR-AFC, endpoint); format: biochemical; conditions: parasitic recombinant enzyme, pH 5.5, quenched after 60 minutes
T2 sequence (Q8IIL0 243-492): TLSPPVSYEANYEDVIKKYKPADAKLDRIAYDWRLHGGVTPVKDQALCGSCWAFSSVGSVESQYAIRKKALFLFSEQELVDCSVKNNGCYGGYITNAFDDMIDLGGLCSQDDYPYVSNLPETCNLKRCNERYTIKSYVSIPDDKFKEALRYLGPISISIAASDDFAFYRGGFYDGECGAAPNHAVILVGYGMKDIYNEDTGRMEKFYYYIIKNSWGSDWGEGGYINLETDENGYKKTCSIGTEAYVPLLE
Procedure: as §1, §2, §3, §4, §5

[3] = test system: Plasmodium falciparum parasite; test: whole cell activity against the Plasmodium falciparum parasite; format: cell-based
Source text: Equation 7 describes the apparent KI for competitive compounds and was substituted into equations 5 and 6 to generate the relevant binding constants from the fitting routine. In addition, the initial and final velocities were fit to equation 3 to further define the binding mechanism and potency. A complete discussion of this kinetic treatment has been fully described (Morrison et al., Adv. Enzymol. Relat. Areas Mol. Biol., 1988, 61, 201). 2) Determination of Whole Cell Activity Against the Plasmodium falciparum Parasite Compounds can be evaluated for whole cell activity against the Plasmodium falciparum parasite according to the procedure described in Sijwali S, and Rosenthal P. J., (2004) Proceedings of the National Academy of Sciences of the United States of America (PNAS) 101(13), 4384-4389 (see in particular “Measurement of Parasite Growth rates and Inhibitor Sensitivity” on page 4385); IC50 values can be calculated as described in Singh A. and Rosenthal P. J., (2001) Antimicrobial Agents and Chemotherapy 45(3), 949-951 (see in particular page 950, first column); synchronised parasites can be prepared as described in Divo A. A. et al., (1985) Protozool. 32, 59-64.

Row | IC50 [1] [nM] | IC50 [2] [nM] | IC50 [3] [nM] | Structure (SMILES)
1 | 2.5 to 15 | 15 to 150 | 15 to 150 | CN1CCC(N2CCN(Cc3ccc(C(=O)NN(CC4CCCC4)c4nc(C#N)nc5c4ncn5C)cc3)CC2)CC1 [Example 18, N′-(2-cyano-9-methyl-9H-purin-6-yl)-N′-(cyclopentylmethyl)-4-({[4-(1-methyl-4-piperidinyl)-1-piperazinyl]methyl}benzohydrazide trifluoroacetate]
2 | 2.5 to 15 | 15 to 150 | 15 to 150 | CN(C)CCCn1cnc2c(N(NC(=O)OC(C)(C)C)C3CCOCC3)nc(C#N)nc21 [Example 19, 1,1-dimethylethyl 2-{2-cyano-9-[3-(dimethylamino)propyl]-9H-purin-6-yl}-2-(tetrahydro-2H-pyran-4-yl)hydrazinecarboxylate trifluoroacetate]
3 | 1 to 2.5 | 150 to 250 | 150 to 250 | CC(=O)N1CCC(N(NC(=O)OC(C)(C)C)c2nc(C#N)nc3c2ncn3C)CC1 [Example 20, 1,1-dimethylethyl-2-(1-acetyl-4-piperidinyl)-2-(2-cyano-9-methyl-9H-purin-6-yl)hydrazinecarboxylate]
4 | 15 to 150 | 250 to 400 | 250 to 400 | CC(C)(C)OC(=O)NN(CC1CCCC1)c1nc(C#N)nc2c1ncn2CCN1C(=O)c2ccccc2C1=O [Example 21, 1,1-dimethylethyl-2-{2-cyano-9-[2-(1,3-dioxo-1,3-dihydro-2H-isoindol-2-yl)ethyl]-9H-purin-6-yl}-2-(cyclopentylmethyl)hydrazinecarboxylate]
5 | 15 to 150 | 250 to 400 | 400 to 1000 | CC(C)CN(NC(=O)c1ccc(CN2CCN(C)CC2)cc1)c1nc(C#N)nc2c1ncn2C [Example 22, N′-(2-cyano-9-methyl-9H-purin-6-yl)-4-[(4-methyl-1-piperazinyl)methyl]-N′-(2-methylpropyl)benzohydrazide]
6 | 2.5 to 15 | 15 to 150 | 400 to 1000 | CN1CCN(Cc2ccc(C(=O)NN(CC3CCCC3)c3nc(C#N)nc4c3ncn4C)cc2)CC1 [Example 23, N′-(2-cyano-9-methyl-9H-purin-6-yl)-N′-(cyclopentylmethyl)-4-[(4-methyl-1-piperazinyl)methyl]benzohydrazide trifluoroacetate]
7 | 2.5 to 15 | 150 to 250 | 250 to 400 | CN1CCN(Cc2cccc(C(=O)NN(c3nc(C#N)nc4c3ncn4C)C3CCCC3)n2)CC1 [Example 26, N′-(2-cyano-9-methyl-9H-purin-6-yl)-N′-cyclopentyl-6-[(4-methyl-1-piperazinyl)methyl]-2-pyridinecarbohydrazide trifluoroacetate]
8 | ≤ 1 | 15 to 150 | 15 to 150 | CN1CCN(Cc2ccc(-c3cncc(C(=O)NN(c4nc(C#N)nc5c4ncn5C)C4CCCC4)c3)cc2)CC1 [Example 27, N′-(2-Cyano-9-methyl-9H-purin-6-yl)-N′-cyclopentyl-5-{4-[(4-methyl-1-piperazinyl)methyl]phenyl}-3-pyridinecarbohydrazide trifluoroacetate]
9 | 2.5 to 15 | 15 to 150 | 15 to 150 | CN1CCN(Cc2ccc(-c3cccc(C(=O)NN(c4nc(C#N)nc5c4ncn5C)C4CCCC4)n3)cc2)CC1 [Example 28, N′-(2-cyano-9-methyl-9H-purin-6-yl)-N′-cyclopentyl-6-{4-[(4-methyl-1-piperazinyl)methyl]phenyl}-2-pyridinecarbohydrazide trifluoroacetate]
10 | ≤ 1 | 2.5 to 15 | 400 to 1000 | CN1CCN(C(=O)n2cnc3c(N(NC(=O)OC(C)(C)C)C4CCCC4)nc(C#N)nc32)CC1 [Example 29, 1,1-dimethylethyl 2-{2-cyano-9-[(4-methyl-1-piperazinyl)carbonyl]-9H-purin-6-yl}-2-cyclopentylhydrazinecarboxylate]
11 | 2.5 to 15 | 15 to 150 | 400 to 1000 | CN1CCN(Cc2ccc(C(=O)NN(c3nc(C#N)nc4[nH]cnc34)C3CCCCC3)cc2)CC1 [Example 30, N′-(2-cyano-1H-purin-6-yl)-N′-cyclohexyl-4-[(4-methyl-1-piperazinyl)methyl]benzohydrazide trifluoroacetate]
12 | 2.5 to 15 | 15 to 150 | 15 to 150 | CN(C)CCCn1cnc2c(N(NC(=O)c3ccc(CN4CCN(C)CC4)cc3)C3CCCCC3)nc(C#N)nc21 [Example 31, N′-{2-cyano-9-[3-(dimethylamino)propyl]-9H-purin-6-yl}-N′-cyclo hexyl-4-[(4-methyl-1-piperazinyl)methyl]benzohydrazide trifluoroacetate]
13 | 2.5 to 15 | 15 to 150 | 250 to 400 | CN1CCN(c2ccc(C(=O)NN(c3nc(C#N)nc4c3ncn4C)C3CCCC3)cc2)CC1 [Example 32, N′-(2-cyano-9-methyl-9H-purin-6-yl)-N′-cyclopentyl-4-(4-methyl-1-piperazinyl)benzohydrazide trifluoroacetate]
14 | 1 to 2.5 | 15 to 150 | 15 to 150 | CN1CCN(c2cccc(C(=O)NN(c3nc(C#N)nc4c3ncn4C)C3CCCC3)c2)CC1 [Example 33, N′-(2-cyano-9-methyl-9H-purin-6-yl)-N′-cyclopentyl-3-(4-methyl-1-piperazinyl)benzohydrazide trifluoroacetate]
15 | 1 to 2.5 | 15 to 150 | 15 to 150 | CN1CCN(Cc2ccc(C(=O)NN(c3nc(C#N)nc4c3ncn4C(=O)N3CCN(C)CC3)C3CCCC3)cc2)CC1 [Example 34, N′-{2-cyano-9-[(4-methyl-1-piperazinyl)carbonyl]-9H-purin-6-yl}-N′-cyclopentyl-4-[(4-methyl-1-piperazinyl)methyl]benzohydrazide trifluoroacetate]
16 | ≤ 1 | 1 to 2.5 | 150 to 250 | CN1CCN(C(=O)n2cnc3c(N(NC(=O)OC(C)(C)C)C4CCCCC4)nc(C#N)nc32)CC1 [Example 35, 1,1-dimethylethyl 2-{2-cyano-9-[(4-methyl-1-piperazinyl)carbonyl]-9H-purin-6-yl}-2-cyclohexylhydrazinecarboxylate trifluoroacetate]
17 | 2.5 to 15 | 15 to 150 | 15 to 150 | CN1CCN(c2cccc(C(=O)NN(c3nc(C#N)nc4c3ncn4C)C3CCCCC3)c2)CC1 [Example 36, N′-(2-cyano-9-methyl-9H-purin-6-yl)-N′-cyclohexyl-3-(4-methyl-1-piperazinyl)benzohydrazide trifluoroacetate]
18 | 1 to 2.5 | 150 to 250 | 2.5 to 15 | CN(C)CCCn1cnc2c(N(NC(=O)c3cccc(N4CCN(C)CC4)c3)C3CCCC3)nc(C#N)nc21 [Example 37, N′-{2-cyano-9-[3-(dimethylamino)propyl]-9H-purin-6-yl}-N′-cyclo pentyl-3-4-methyl-1-piperazinyl)benzohydrazide trifluoroacetate]
